Test results from the CheMixHub drug solubility set.

Experiment: xn = mol fraction of the nth substance listed, in the solute-free solvent

CC1=NNC(=O)N(N=Cc2cccnc2)C1 + CN1CCCC1=O + CC(C)O
solubility (g/100 g solution)
Details	278.15 K	283.15 K	288.15 K	293.15 K	298.15 K	303.15 K	308.15 K	313.15 K	318.15 K
x2 = 0.1316	0.161	0.188	0.221	0.258	0.3	0.347	0.402	0.461	0.529
x2 = 0.2878	0.235	0.273	0.319	0.37	0.429	0.494	0.57	0.652	0.746
x2 = 0.4763	0.292	0.339	0.395	0.457	0.529	0.608	0.701	0.801	0.914
x2 = 0.708	0.333	0.386	0.449	0.519	0.601	0.689	0.794	0.906	1.03

O=c1cc(CBr)c2ccccc2[nH]1 + CC(C)O + O
solubility (g/100 g solution)
Details	278.15 K	283.15 K	288.15 K	293.15 K	298.15 K	303.15 K	308.15 K	313.15 K	318.15 K
x2 = 0.03225	0.0121	0.0159	0.0207	0.0271	0.0355	0.0446	0.057	0.0718	0.0897
x2 = 0.06974	0.0203	0.0259	0.0329	0.0413	0.0516	0.0641	0.079	0.0958	0.119
x2 = 0.1139	0.03	0.0369	0.0456	0.0556	0.0685	0.0827	0.099	0.118	0.14
x2 = 0.1666	0.0397	0.0483	0.0576	0.0694	0.082	0.0986	0.115	0.136	0.158
x2 = 0.2307	0.0498	0.0596	0.0697	0.0834	0.0971	0.113	0.131	0.151	0.173
x2 = 0.3103	0.0585	0.0689	0.0799	0.0928	0.106	0.123	0.141	0.161	0.18
x2 = 0.4117	0.0623	0.0721	0.0833	0.0972	0.112	0.127	0.144	0.163	0.184
x2 = 0.5454	0.065	0.0751	0.0871	0.1	0.114	0.13	0.147	0.164	0.185
x2 = 0.7297	0.0639	0.0739	0.0847	0.0962	0.11	0.124	0.14	0.158	0.176

Cc1ccc(-c2cc(C(F)(F)F)nn2-c2ccc(S(N)(=O)=O)cc2)cc1 + CN1CCCC1=O + CCO
solubility (g/100 g solution)
Details	x2 = 0.0491	x2 = 0.1041	x2 = 0.1661	x2 = 0.2365	x2 = 0.3173	x2 = 0.4108	x2 = 0.5202	x2 = 0.6502	x2 = 0.8071
293.15 K	8.15	8.62	9.04	9.29	9.69	10.4	12.6	14.8	17.6
298.15 K	8.96	9.87	10.4	10.9	11.4	12.6	14.7	16.8	19.6
303.15 K	10.2	10.9	11.3	12.3	12.9	14.4	16.7	18.8	22
308.15 K	11.1	11.8	12.6	13.8	14.3	16.4	18.8	20.9	23.9
313.15 K	12.1	12.7	13.9	15.2	15.9	19	21.3	23.5	25.9
